Patent US11566007B2, “Ras inhibitors” (Revolution Medicines, Inc., priority 2019, dated 2023)

Legend:
K-Ras G12C = K-Ras G12C (Homo sapiens (Human), UniProt P01116+P62937, G12C); test: Ras-Raf (BRAF RBD) disruption / FRET / MOA assay, KRAS G12C; format: biochemical; details: KRAS G12C; Ras-Raf disruption/FRET/MOA assay; read-out: IC50* KRAS G12C FRET data
How it was run: (§1)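 A 10-point, 3-fold dilution series topping at 30 μM final was incubated 3 h at 25° C with the Ras/cyclophilin A/BRAF RBD mixture.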

KRAS WT = KRAS WT (Homo sapiens (Human), UniProt P01116+P62937); test: Ras-Raf (BRAF RBD) disruption / FRET / MOA assay, KRAS WT; format: biochemical; details: read-out: IC50* KRAS WT FRET data
How it was run: as §1

K-Ras G13C = K-Ras G13C (Homo sapiens (Human), UniProt P01116+P62937, G13C); test: Ras-Raf (BRAF RBD) disruption / FRET / MOA assay, KRAS G13C; format: biochemical; details: KRAS G13C; Ras-Raf disruption/FRET/MOA assay; read-out: IC50* KRAS G13C FRET data
How it was run: as §1

NCI-H358 (K-Ras G12C) = test: CellTiter-Glo cell viability assay, NCI-H358; format: cell-based, human; details: Homo sapiens, NCI-H358, 120 h, NCI-H358, 5-day treatment; class symbols; read-out: Additional H358 Cell Viability assay data (K-Ras G12C, IC50)
How it was run: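 Compounds dispensed directly onto seeded K-Ras mutant cells; plates read on day 5 after ~30 min equilibration to room temperature, by CellTiter-Glo luminescence. Signal normalized as (sample/mean DMSO)×100, then fitted to a four-parameter logistic curve.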

NRAS G12C = NRAS G12C (Homo sapiens (Human), UniProt P01111+P62937, G12C); test: Ras-Raf (BRAF RBD) disruption / FRET / MOA assay, NRAS G12C; format: biochemical; details: read-out: IC50* NRAS G12C FRET data
How it was run: as §1

KRAS G13D = KRAS G13D (Homo sapiens (Human), UniProt P01116+P62937, G13D); test: Ras-Raf (BRAF RBD) disruption / FRET / MOA assay, KRAS G13D; format: biochemical; details: read-out: IC50* KRAS G13D FRET data
How it was run: as §1

KRAS G12V = KRAS G12V (Homo sapiens (Human), UniProt P01116+P62937, G12V); test: Ras-Raf (BRAF RBD) disruption / FRET / MOA assay, KRAS G12V; format: biochemical; details: read-out: IC50* KRAS G12V FRET data
How it was run: as §1

[1] = tested on: NCI-H358 cells (K-Ras G12C); test: Potency assay: pERK in NCI-H358 cells; format: cell-based, human; details: Homo sapiens, NCI-H358; H358 KRAS G12C; read-out: pERK EC50
How it was run: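 pERK decrease read by AlphaLISA SureFire p-ERK1/2 or In-Cell Western after 4 h compound exposure at 37 °C, 5% CO2.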

KRAS G12D = KRAS G12D (Homo sapiens (Human), UniProt P01116+P62937, G12D); test: Ras-Raf (BRAF RBD) disruption / FRET / MOA assay, KRAS G12D; format: biochemical; details: Ras-Raf disruption/FRET/MOA assay; class symbols; read-out: KRAS G12D FRET data IC50
How it was run: as §1

KRAS G12S = KRAS G12S (Homo sapiens (Human), UniProt P01116+P62937, G12S); test: Ras-Raf (BRAF RBD) disruption / FRET / MOA assay, KRAS G12S; format: biochemical; details: Ras-Raf disruption/FRET/MOA assay; class symbols; read-out: KRAS G12S FRET data IC50
How it was run: as §1

K-Ras G12C, sequence (P01116-2 other isoform, or with tags, fused parts or gaps G12C): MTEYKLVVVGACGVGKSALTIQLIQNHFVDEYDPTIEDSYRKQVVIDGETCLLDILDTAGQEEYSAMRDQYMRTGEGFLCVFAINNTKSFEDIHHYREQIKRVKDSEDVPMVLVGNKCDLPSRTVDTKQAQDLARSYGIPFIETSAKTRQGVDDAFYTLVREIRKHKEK
K-Ras G12C, sequence (P62937 whole entry): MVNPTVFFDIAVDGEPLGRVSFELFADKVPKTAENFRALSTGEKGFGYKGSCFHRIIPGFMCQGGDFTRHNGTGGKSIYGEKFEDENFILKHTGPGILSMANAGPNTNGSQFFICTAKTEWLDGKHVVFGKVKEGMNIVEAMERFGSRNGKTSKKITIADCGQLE
KRAS G12D, sequence (P01116-2 other isoform, or with tags, fused parts or gaps G12D): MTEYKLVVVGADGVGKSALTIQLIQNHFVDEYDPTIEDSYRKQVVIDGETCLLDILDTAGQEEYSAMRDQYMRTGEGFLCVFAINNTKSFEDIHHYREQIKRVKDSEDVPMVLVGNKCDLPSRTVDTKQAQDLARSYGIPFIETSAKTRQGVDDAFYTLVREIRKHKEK
KRAS G12D, sequence (P62937 whole entry): as the sequence (P62937 whole entry) above
KRAS G12S, sequence (P01116-2 other isoform, or with tags, fused parts or gaps G12S): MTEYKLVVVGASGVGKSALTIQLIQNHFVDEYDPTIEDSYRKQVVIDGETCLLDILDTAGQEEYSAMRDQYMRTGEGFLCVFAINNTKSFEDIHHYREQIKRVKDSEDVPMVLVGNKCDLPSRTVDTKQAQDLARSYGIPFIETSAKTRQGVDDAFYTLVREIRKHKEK
KRAS G12S, sequence (P62937 whole entry): as the sequence (P62937 whole entry) above
NRAS G12C, sequence (P01111 whole entry G12C): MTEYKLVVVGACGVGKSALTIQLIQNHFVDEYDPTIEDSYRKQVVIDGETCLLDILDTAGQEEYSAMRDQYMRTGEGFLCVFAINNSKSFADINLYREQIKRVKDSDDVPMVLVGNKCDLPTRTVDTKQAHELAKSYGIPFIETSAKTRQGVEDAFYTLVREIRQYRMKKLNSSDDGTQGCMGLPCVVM
NRAS G12C, sequence (P62937 whole entry): as the sequence (P62937 whole entry) above
KRAS G13D, sequence (P01116-2 other isoform, or with tags, fused parts or gaps G13D): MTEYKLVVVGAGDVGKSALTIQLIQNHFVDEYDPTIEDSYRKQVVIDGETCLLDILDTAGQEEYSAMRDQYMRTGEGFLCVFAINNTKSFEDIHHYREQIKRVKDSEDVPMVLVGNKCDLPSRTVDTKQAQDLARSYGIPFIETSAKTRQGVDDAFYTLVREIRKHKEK
KRAS G13D, sequence (P62937 whole entry): as the sequence (P62937 whole entry) above
K-Ras G13C, sequence (P01116-2 other isoform, or with tags, fused parts or gaps G13C): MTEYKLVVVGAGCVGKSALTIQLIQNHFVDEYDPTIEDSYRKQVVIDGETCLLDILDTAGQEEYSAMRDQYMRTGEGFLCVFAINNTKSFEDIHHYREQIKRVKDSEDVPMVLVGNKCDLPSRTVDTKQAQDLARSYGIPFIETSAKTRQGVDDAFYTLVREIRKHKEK
K-Ras G13C, sequence (P62937 whole entry): as the sequence (P62937 whole entry) above
KRAS WT, sequence (P01116-2 other isoform, or with tags, fused parts or gaps): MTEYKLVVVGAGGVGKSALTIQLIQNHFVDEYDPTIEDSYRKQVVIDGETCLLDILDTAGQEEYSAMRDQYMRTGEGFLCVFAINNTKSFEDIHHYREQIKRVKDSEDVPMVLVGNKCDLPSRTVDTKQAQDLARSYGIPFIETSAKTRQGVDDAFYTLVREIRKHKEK
KRAS WT, sequence (P62937 whole entry): as the sequence (P62937 whole entry) above
KRAS G12V, sequence (P01116-2 other isoform, or with tags, fused parts or gaps G12V): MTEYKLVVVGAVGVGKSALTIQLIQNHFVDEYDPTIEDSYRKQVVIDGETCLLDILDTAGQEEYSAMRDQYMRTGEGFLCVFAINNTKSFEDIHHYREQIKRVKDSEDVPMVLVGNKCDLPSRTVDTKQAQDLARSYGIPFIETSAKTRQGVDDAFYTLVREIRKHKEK
KRAS G12V, sequence (P62937 whole entry): as the sequence (P62937 whole entry) above

| SMILES | IC50 (K-Ras G12C) [nM] | IC50 (KRAS WT) [nM] | IC50 (K-Ras G13C) [nM] | IC50 (NCI-H358 (K-Ras G12C)) [nM] | IC50 (NRAS G12C) [nM] | IC50 (KRAS G13D) [nM] | IC50 (KRAS G12V) [nM] | EC50 [1] [nM] | IC50 (KRAS G12D) [nM] | IC50 (KRAS G12S) [nM] |
| --- | --- | --- | --- | --- | --- | --- | --- | --- | --- | --- |
| C=CC(=O)N1CCN(C(=O)N(C)[C@H](C(=O)N[C@H]2Cc3nc(cs3)-c3ccc4c(c3)c(c(-c3cccnc3[C@H](C)OC)n4CC)CC(C)(C)COC(=O)[C@@H]3CCCN(N3)C2=O)C(C)C)C[C@H]1C (atropisomer, axis not shown) [Example A432] | 10 to 100 | 10 to 100 | 10 to 100 | 10 to 100 | 10 to 100 | 100 to 1000 | 100 to 1000 | < 5000 | 100 to 1000 | 100 to 1000 |
| C=CC(=O)N1CCN(C(=O)N(C)[C@H](C(=O)N[C@H]2Cc3cc(O)cc(c3)-c3ccc4c(c3)c(c(-c3ccccc3CCOC)n4CC)CC(C)(C)COC(=O)[C@@H]3CCCN(N3)C2=O)C(C)C)C[C@H]1COC [Example A146] | 100 to 1000 | 1000 to 10000 | 100 to 1000 | 100 to 1000 | 100 to 1000 | 1000 to 10000 | 1000 to 10000 | < 5000 | > 10000 | 1000 to 10000 |
| CCn1c(-c2cccnc2[C@H](C)OC)c2c3cc(ccc31)-c1cccc(c1)C[C@H](NC(=O)[C@H](C(C)C)N(C)C(=O)C1CCN(C(=O)C#C[C@@H]3CC(F)(F)CN3C)C1)C(=O)N1CCC[C@H](N1)C(=O)OCC(C)(C)C2 (some centres unmarked) [Example A526] | 10 to 100 | 1000 to 10000 | 1000 to 10000 | < 10 | 10 to 100 | > 10000 | 1000 to 10000 | < 5000 | > 10000 | 1000 to 10000 |
| CCn1c(-c2cccnc2[C@H](C)OC)c2c3cc(ccc31)-c1cc(O)cc(c1)C[C@H](NC(=O)[C@H](C(C)C)N1CCC3(CN(C(=O)/C=C/CN(C)C)C3)C1=O)C(=O)N1CCC[C@H](N1)C(=O)OCC(C)(C)C2 (atropisomer, axis not shown) [Example A270] | < 10 | 10 to 100 | < 10 | 10 to 100 | < 10 | 10 to 100 | 100 to 1000 | < 5000 | 100 to 1000 | 10 to 100 |
| CCn1c(-c2cccnc2[C@H](C)OC)c2c3cc(ccc31)-c1cccc(c1)C[C@H](NC(=O)[C@H](C(C)C)N(C)C(=O)[C@H]1CCN(C(=O)C#CC3(N(C)C)CCOCC3)C1)C(=O)N1CCC[C@H](N1)C(=O)OCC(C)(C)C2 (atropisomer, axis not shown) [Example A532] | 10 to 100 | 1000 to 10000 | 1000 to 10000 | < 10 | 10 to 100 | > 10000 | 1000 to 10000 | < 5000 | > 10000 | 1000 to 10000 |
| CCn1c(-c2cccnc2[C@H](C)OC)c2c3cc(ccc31)-c1cc(O)cc(c1)C[C@H](NC(=O)[C@H](C(C)C)N1CCC3(CCN(C(=O)/C=C/CN(C)C)CC3)C1=O)C(=O)N1CCC[C@H](N1)C(=O)OCC(C)(C)C2 (atropisomer, axis not shown) [Example A267] | 10 to 100 | 100 to 1000 | 10 to 100 | 10 to 100 | 10 to 100 | 10 to 100 | 100 to 1000 | < 5000 | 1000 to 10000 | 100 to 1000 |
| C=CC(=O)N1CC[C@H](C(=O)N(C)[C@H](C(=O)N[C@H]2Cc3cc(O)cc(c3)-c3ccc4c(c3)c(c(-c3cn(C)nc3[C@H](C)OC)n4CC)CC(C)(C)COC(=O)[C@@H]3CCCN(N3)C2=O)C(C)C)C1 [Example A154] | 10 to 100 | 1000 to 10000 | 1000 to 10000 | 10 to 100 | 10 to 100 | 1000 to 10000 | 100 to 1000 | < 5000 | 1000 to 10000 | 100 to 1000 |
| CCn1c(-c2cccnc2[C@H](C)OC)c2c3cc(ccc31)-c1cc(O)cc(c1)C[C@H](NC(=O)[C@H](C(C)C)N(C)C(=O)c1ncc(NC(=O)/C=C/CN(C)C)n1C)C(=O)N1CCC[C@H](N1)C(=O)OCC(C)(C)C2 [Example A529] | < 10 | 100 to 1000 | < 10 | 10 to 100 | < 10 | 100 to 1000 | 100 to 1000 | < 5000 | 100 to 1000 | 100 to 1000 |
